Measurements: patent US8114877B2, “Organic compounds” (Novartis AG, priority 2005, dated 2012)
Counter-ions that a name gives are not always drawn.

Biological target: adenosine A2A receptor (Homo sapiens, UniProt P29274)
Test: adenosine A2A receptor agonist assay, method of Murphree et al, Molecular Pharmacology 61, 455-462 (2002)
Format: binding
Conditions: method of L. J. Murphree et al
Description: Compounds of formula I and their pharmaceutically acceptable salts are useful as pharmaceuticals. In particular, they activate the adenosine A2A receptor, i.e. they act as A2A receptor agonists.

adenosine A2A receptor, sequence (P29274 whole entry): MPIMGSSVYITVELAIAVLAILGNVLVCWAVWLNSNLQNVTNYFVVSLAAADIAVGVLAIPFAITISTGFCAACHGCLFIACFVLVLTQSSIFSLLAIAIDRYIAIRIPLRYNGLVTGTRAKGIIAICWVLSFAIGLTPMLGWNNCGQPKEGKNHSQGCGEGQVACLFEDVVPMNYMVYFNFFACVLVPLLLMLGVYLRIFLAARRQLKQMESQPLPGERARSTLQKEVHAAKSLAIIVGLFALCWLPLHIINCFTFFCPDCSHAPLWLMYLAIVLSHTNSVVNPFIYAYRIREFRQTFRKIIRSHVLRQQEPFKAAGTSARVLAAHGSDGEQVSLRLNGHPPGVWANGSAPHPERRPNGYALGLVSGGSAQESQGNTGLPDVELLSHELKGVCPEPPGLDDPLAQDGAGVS

Row | SMILES | Ki
1 | Cc1nnn([C@H]2C[C@@H](n3cnc4c(NCC(c5ccccc5)c5ccccc5)nc(N[C@@H]5CCNC5)nc43)[C@H](O)[C@@H]2O)n1 [Example 7, (1R,2S,3R,5S)-3-[6-(2,2-Diphenyl-ethylamino)-2-((R)-pyrrolidin-3-ylamino)-purin-9-yl]-5-(5-methyl-tetrazol-2-yl)-cyclopentane-1,2-diol trifluoroacetate] | 43 nM
2 | NC1CCC(Nc2nc(NCC(c3ccccc3)c3ccccc3)c3ncn(C4CC(n5cccn5)C(O)C4O)c3n2)CC1 [Example 12, (1R,2S,3R,1S)-3-[2-(4-Amino-cyclohexylamino)-6-(2,2-diphenyl-ethylamino)-purin-9-yl]-5-pyrazol-1-yl-cyclopentane-1,2-diol] | 272 nM
